In patent US20050004134A1, “Thiazole derivative and pharmaceutical use thereof” (priority 2001, published 2005) one finds melting point data, which are given here for 36 compounds.

A word on the melting point: it is the temperature of the solid-liquid transition. As for `CC(C)n1nc(-c2sc(NCCCN3CCOCC3)nc2-c2ccccc2)ccc1=O` [Example 68, 2-I sopropyl-6-(2-{[3-(4-morpholinyl)propyl]amino}-4-phenyl-1,3-thiazol-5-yl)-3(2H)-pyridazinone], the melting point lay within 194 to 195 °C.
For `CC(C)n1nc(-c2sc(NC3CCCCC3)nc2-c2ccccc2)ccc1=O` [Example 70, 6-[2-(Cyclohexylamino)-4-phenyl-1,3-thiazol-5-yl]-2-isopropyl-3(2H)-pyridazinone], the melting point lay in the range of 149 to 151 °C.
Consider `CC(C)n1nc(-c2sc(Nc3cccc4ccccc34)nc2-c2ccccc2)ccc1=O` [Example 72, 2-Isopropyl-6-[2-(1-naphthylamino)-4-phenyl-1,3-thiazol-5-yl]-3(2H)-pyridazinone], for which the melting point was 239 to 240 °C.
The compound `CCCNc1nc(-c2ccccc2)c(-c2ccc(=O)n(C(C)C)n2)s1` [Example 73, 2-Isopropyl-6-[4-phenyl-2-(propylamino)-1,3-thiazol-5-yl]-3(2H)-pyridazinone] had a melting point of 165 to 166 °C.
For `CC(C)n1nc(-c2sc(NCCN3CCCCC3)nc2-c2ccccc2)ccc1=O` [Example 74, 2-Isopropyl-6-(4-phenyl-2-{[2-(1-piperidinyl)ethyl]amino}-1,3-thiazol-5-yl)-3(2H)-pyridazinone], the melting point is 165 to 166 °C.
`CC(C)n1nc(-c2sc(NC=O)nc2-c2ccc(F)cc2)ccc1=O` [Example 76, 4-(4-fluorophenyl)-5-(1-isopropyl-6-oxo-1,6-dihydro-3-pyridazinyl)-1,3-thiazol-2-ylformamide] yielded a melting point of 230 to 231 °C.
With `CC(C)n1nc(-c2sc(N)nc2-c2ccc(F)cc2)ccc1=O` [Example 77, 6-[2-amino-4-(4-fluorophenyl)-1,3-thiazol-5-yl]-2-isopropyl-3(2H)-pyridazinone], the melting point is 255.5 to 257 °C.
Consider `CC(C)n1nc(-c2sc(N)nc2-c2ccccc2F)ccc1=O` [Example 79, 6-[2-Amino-4-(2-fluorophenyl)-1,3-thiazol-5-yl]-2-isopropyl-3(2H)-pyridazinone], for which the melting point is 233 to 235 °C.
In turn, `CC(C)n1nc(-c2sc(N)nc2-c2cccc(F)c2)ccc1=O` [Example 80, 6-[2-Amino-4-(3-fluorophenyl)-1,3-thiazol-5-yl]-2-isopropyl-3(2H)-pyridazinone] had a melting point of 237 to 238 °C.
Compound `CC(C)n1nc(-c2sc(N)nc2-c2cccc(Cl)c2)ccc1=O` [Example 81, 6-[2-Amino-4-(3-chlorophenyl)-1,3-thiazol-5-yl]-2-isopropyl-3(2H)-pyridazinone] gave a melting point of 235.5 to 237 °C.
With `CC(=O)Nc1nc(-c2ccc(F)cc2)c(-c2ccc(=O)n(C(C)C)n2)s1` [Example 82, N-[4-(4-fluorophenyl)-5-(1-isopropyl-6-oxo-1,6-dihydro-3-pyridazinyl)-1,3-thiazol-2-yl]acetamide], the melting point is 236 to 237.5 °C.
`CC(C)n1nc(-c2sc(NC(=O)c3ccccc3)nc2-c2ccc(F)cc2)ccc1=O` [Example 83, N-[4-(4-Fluorophenyl)-5-(1-isopropyl-6-oxo-1,6-dihydro-3-pyridazinyl)-1,3-thiazol-2-yl]-benzamide] registered a melting point of 202 to 203.5 °C.
In turn, `Nc1nc(-c2ccccc2)c(-c2ccc(=O)[nH]n2)s1` [Example 84, 6-(2-amino-4-phenyl-1,3-thiazol-5-yl)-3(2H)-pyridazinone] had a melting point of over 250 °C.
As for `Cn1nc(-c2sc(N)nc2-c2ccccc2)ccc1=O` [Example 85, 6-(2-amino-4-phenyl-1,3-thiazol-5-yl)-2-methyl-3(2H)-pyridazinone], the melting point was in the range of 238 to 241 °C.
In the case of `CCCn1nc(-c2sc(N)nc2-c2ccccc2)ccc1=O` [Example 86, 6-(2-Amino-4-phenyl-1,3-thiazol-5-yl)-2-propyl-3(2H)-pyridazinone], the melting point was 224 to 226 °C.
Regarding `COCCn1nc(-c2sc(N)nc2-c2ccccc2)ccc1=O` [Example 87, 6-(2-Amino-4-phenyl-1,3-thiazol-5-yl)-2-(2-methoxyethyl)-3(2H)-pyridazinone], the melting point lay within 208 to 209.5 °C.
The compound `Nc1nc(-c2ccccc2)c(-c2ccc(=O)n(CC3CC3)n2)s1` [Example 88, 6-(2-Amino-4-phenyl-1,3-thiazol-5-yl)-2-(cyclopropylmethyl)-3(2H)-pyridazinone] gave a melting point of 204 to 206 °C.
For `COC(=O)Cn1nc(-c2sc(N)nc2-c2ccccc2)ccc1=O` [Example 89, Methyl [3-(2-amino-4-phenyl-1,3-thiazol-5-yl)-6-oxo-1 (6H)-pyridazinyl]acetate], the melting point lay in the range of 190 to 193 °C.
The compound `CC(=O)Cn1nc(-c2sc(N)nc2-c2ccccc2)ccc1=O` [Example 90, 6-(2-Amino-4-phenyl-1,3-thiazol-5-yl)-2-(2-oxopropyl)-3(2H)-pyridazinone] yielded a melting point of 216 to 219 °C.
In the case of `O=c1ccc(-c2sc(NCc3ccccc3)nc2-c2ccccc2)nn1Cc1ccccc1` [Example 92, 2-benzyl-6-[2-(benzylamino)-4-phenyl-1,3-thiazol-5-yl]-3(2H)-pyridazinone] it was 163.5 to 165 °C; in that of `Nc1nc(-c2ccccc2)c(-c2ccc(=O)n(Cc3ccccc3)n2)s1` [Example 92, 6-(2-Amino-4-phenyl-1,3-thiazol-5-yl)-2-benzyl-3(2H)-pyridazinone], 225 to 228 °C; in that of `C=CCn1nc(-c2sc(N)nc2-c2ccccc2)ccc1=O` [Example 93, 2-Allyl-6-(2-amino-4-phenyl-1,3-thiazol-5-yl)-3(2H)-pyridazinone], 212 to 215 °C.
`C=CCNc1nc(-c2ccccc2)c(-c2ccc(=O)n(CC=C)n2)s1` [Example 93, 2-allyl-6-[2-(allylamino)-4-phenyl-1,3-thiazol-5-yl]-3(2H)-pyridazinone]: the melting point was in the range of 146 to 147 °C.
In the case of `CC(C)n1nc(-c2sc(NC=O)nc2-c2ccccc2)ccc1=O` [Example 94, 5-(1-isopropyl-6-oxo-1,6-dihydro-3-pyridazinyl)-4-phenyl-1,3-thiazol-2-ylformamide] it was 232 to 234 °C; in that of `CC(C)n1nc(-c2sc(NC(=O)OC(C)(C)C)nc2-c2ccccc2)ccc1=O` [Example 95, tert-butyl 5-(1-isopropyl-6-oxo-1,6-dihydro-3-pyridazinyl)-4-phenyl-1,3-thiazol-2-ylcarbamate], 198 to 199 °C; in that of `COCCNCc1ccc(C(=O)Nc2nc(-c3ccccc3)c(-c3ccc(=O)n(C(C)C)n3)s2)cc1` [Example 96, N-[5-(1-isopropyl-6-oxo-1,6-dihydro-3-pyridazinyl)-4-phenyl-1,3-thiazol-2-yl]-4-([(2-methoxyethyl)amino]methyl}benzamide], 192 to 194 °C.
The compound `CC(C)n1nc(-c2sc(NC(=O)c3ccc(CN4CCN(C)CC4)cc3)nc2-c2ccccc2)ccc1=O` [Example 97, N-(5-(1-Isopropyl-6-oxo-1,6-dihydro-3-pyridazinyl)-4-phenyl-1,3-thiazol-2-yl]-4-[(4-methyl-1-piperazinyl)methyl]benzamide] gave a melting point of 224 to 227 °C.
The compound `Cc1cccc(NC(=O)N(C)c2nc(-c3ccccc3)c(-c3ccc(=O)n(C(C)C)n3)s2)c1` [Example 99, N-[5-(1-isopropyl-6-oxo-1,6-dihydro-3-pyridazinyl)-4-phenyl-1,3-thiazol-2-yl]-N-methyl-N′-(3-methylphenyl)urea] yielded a melting point of 157 to 158 °C.
In the case of `CC(C)n1nc(-c2sc(NC(=O)Cn3ccnc3)nc2-c2ccccc2)ccc1=O` [Example 102, 2-(1H-Imidazol-1-yl)-N-[5-(1-isopropyl-6-oxo-1,6-dihydro-3-pyridazinyl)-4-phenyl-1,3-thiazol-2-yl]acetamide] it was 160 to 161 °C; in that of `CC(C)n1nc(-c2sc(NC(=O)CNCc3ccccc3)nc2-c2ccccc2)ccc1=O` [Example 103, 2-(Benzylamino)-N-[5-(1-isopropyl-6-oxo-1,6-dihydro-3-pyridazinyl)-4-phenyl-1,3-thiazol-2-yl]acetamide], 144 to 145 °C.
The compound `CC(C)n1nc(-c2sc(NC(=O)CN(C)CCc3ccccn3)nc2-c2ccccc2)ccc1=O` [Example 111, N-[5-(1-Isopropyl-6-oxo-1,6-dihydro-3-pyridazinyl)-4-phenyl-1,3-thiazol-2-yl]-2-{methyl[2-(2-pyridinyl)ethyl]amino}acetamide] came in with a melting point of 94 to 96 °C.
In turn, `CC(C)n1nc(-c2sc(NC(=O)CNCCO)nc2-c2ccccc2)ccc1=O` [Example 117, 2-[(2-Hydroxyethyl)amino]-N-[5-(1-isopropyl-6-oxo-1,6-dihydro-3-pyridazinyl)-4-phenyl-1,3-thiazol-2-yl]acetamide] registered a melting point of 142 to 144 °C.
Take `CC(C)n1nc(-c2sc(NC(=O)CN(C)CCN(C)C)nc2-c2ccccc2)ccc1=O` [Example 118, 2-[(2-(Dimethylamino)ethyl)(methyl)amino]-N-[5-(1-isopropyl-6-oxo-1,6-dihydro-3-pyridazinyl)-4-phenyl-1,3-thiazol-2-yl]acetamide]: the melting point lay within 155 to 157 °C.
`CC(C)n1nc(-c2sc(NC(=O)CNCc3cccnc3)nc2-c2ccccc2)ccc1=O` [Example 120, N-[5-(1-Isopropyl-6-oxo-1,6-dihydro-3-pyridazinyl)-4-phenyl-1,3-thiazol-2-yl]-2-[(3-pyridinylmethyl)amino]acetamide] came in with a melting point of 156 to 158 °C.
For the compound `COCCNCCC(=O)Nc1nc(-c2ccccc2)c(-c2ccc(=O)n(C(C)C)n2)s1` [Example 122, N-[5-(1-Isopropyl-6-oxo-1,6-dihydro-3-pyridazinyl)-4-phenyl-1,3-thiazol-2-Yl]-3-[(2-methoxyethyl)amino]propanamide], the melting point is 167 to 168 °C.
In turn, `CC(C)n1nc(-c2sc(NC(=O)CCN3CCOCC3)nc2-c2ccccc2)ccc1=O` [Example 123, N-[5-(1-Isopropyl-6-oxo-1,6-dihydro-3-pyridazinyl)-4-phenyl-1,3-thiazol-2-yl]-3-(4-morpholinyl)propanamide] displayed a melting point of 197 to 198 °C.
